Here are results for two compounds from patent publication US10780094B2, “Use of carbonic anhydrase inhibitors for treatment of neurological and psychiatric disorders” (New York University, priority 2016, dated 2020).

The test system of one experiment is TgSwDI mice. The experiment can be described thus: Brain immunostaining and Thioflavin S staining in a model of vascular and parenchymal amyloidosis. The format is in vivo, mouse. The note with it: for Aβ and GFAP staining, dentate gyrus (hippocampus) / GFAP and Aβ staining and their colocalization, cortex / co-localization of Aβ staining with glial cells, dentate gyrus / gliosis and amyloidosis, thalamic region: 16 month-old mice treated for 8 months; for amyloid deposits in the cortex and thalamic region (Thioflavin S) / hippocampal deposition of Amyloid beta (Thioflavin S) / amyloid load in the brain (Thioflavin S): 16 months old, diet 8 months; for amyloid load in the brain (Thioflavin S): 15-20 mg/kg/day. As to the method: The animals were sacrificed by trans-cardiac perfusion (medium flow pump, Fisher Scientific 13-876-2, 10 ml/min flow rate) with PBS for 2 minutes followed by 4% paraphormaldehyde for 5 minutes. Brains were then removed from the skull and postfixed in 4% paraphormaldehyde for 2 h at 4° C. […] Brains were then washed in PBS, assembled in a plastic mold with Tissue-Tek O.C.T. compound (Fisher Scientific), and frozen with a mixture of liquid nitrogen and isopenthanol. Serial cryostat sections of 8 μm thickness were collected on positively charged microscope slides (Fisher Scientific) and stored at −80° C. until further immunohistochemical analysis.
For immunohistochemical staining, slices were warmed to RT for 5′ prior to use, rinsed in PBS and blocked with Mouse on Mouse (MOM) blocking reagent (2 drops in 2.5 ml of PBS, Vector Laboratories, Burlingame, Calif.) for 20 minutes. Incubation with the rabbit monoclonal antibody against active caspase-3 (Cell Signaling Technology) was performed overnight at 4° C. in PBS containing 0.1% triton X-100 and 5 mg/ml BSA. The day after, the sections were washed three times with PBS and incubated in Alexa Fluor 488- or 633-conjugated anti-rabbit IgG (Life Technologies; 1:200 in PBST with 5 mg/ml BSA; 1 h at RT), followed by primary anti-Aβ 6E10 (1:200 in PBS+MOM for 2 hours at RT), and by secondary Alexa Fluor 568 anti-mouse IgG. Finally, the slices were washed and the DNA counterstained with TO-PRO (Life Technologies) 1:1000 for 10 min, or with NeuN green neuronal staining (1:100 in PBS for 1 hour, Millipore, Temecula, Calif.). For staining of active microglial cells, tissue sections were incubated with anti IBA1 goat antibody (Abcam, Cambridge, Mass.) 1:200 in PBS containing 0.1% Triton and 5 mg/ml BSA for 1 hour, followed by Alexa Fluor 488 anti-goat IgG (1 hour). For astrocytes, brain slices were stained with GFAP antibody (Fisher Scientific 1:200).
Total fibrillar Aβ burden (parenchymal and vascular) and CAA burden (Aβ burden in the vasculature) were evaluated separately in sections stained with Thioflavin-S, using methods described previously (Scholtzova et al., J Neurosci 2009, 29: 1846-1854).
After washing, slides were mounted with an aqueous mounting medium (Vector Laboratories). Images were acquired in a Zeiss LSM 510 confocal microscope using 40× or 100× oil lens and processed using Image J and Adobe Photoshop. Images were acquired maintaining constant exposure for all samples across single experiments. For quantifications, stained brain slices corresponding to the injection site area of 3 or more animals were quantified with Image J. The total area of NeuN, caspase 3, Aβ and IBA1 positive cells was quantified and compared between different treatments.

The test system of another experiment is caspase 9 in D3 cells. Description: Caspase-Glo 9 activity after Aβ challenge. The format is cell-based, human. Particulars: Example 2/3; FIG. 16D, 22. As to the method: Cells were plated at a confluence of 10.000 cells per well in 96-wells microplate luminescence microtiter (ThermoFisher, Waltham, Mass., US). The day after, cells were treated with the peptides and/or drugs for the experimental times. After that, caspase-Glo 9 assay was performed, following the protocol provided from the manufacturer. Luminescence was measured using a FlexStation 3 Multi-Mode Microplate Reader (Molecular devices, Sunnyvalem Calif., US).

A further experiment relates to mitochondrial CA. Particulars: reference (16); cited from earlier work.
Another experiment deals with D3 cells. The experiment can be described thus: Mitochondrial and cytoplasmic calcium assay (Rhod-2 AM, Fluo-4 AM). It is filed as cell-based, human. Particulars: highest doses; 45 minutes. As to the method: This assay was performed as published in [60]. Briefly, cells were plated on 25 mm optical borosilicate poly-L-lysine-coated sterile glass covers, (ThermoFisher, Waltham, Mass., US) at a 70% confluence. 24 hours later, cells were loaded with 5 μM Rhod-2 AM or 2.5 μM Fluo-4 AM on HBSS for 45 minutes. Then, cells were washed twice with HBSS and incubated for another additional 15 minutes on fresh HBSS, without Rhod-2 AM or Fluo-4 AM. After that, HBSS was replaced again by fresh HBSS, glasses were mounted on microscopy chambers and experiments were conducted, after adding the pre-aggregated peptides and/or the drugs. Cells were mounted on Sykes-Moores chambers (BellCo, Vineland, N.J., US) and imaged every 15 seconds for 45 min, at a 20× magnification, using a Nikon fluorescent microscope (Chiyoda, Tokyo, Japan). Images were processed using NIS-Elements and ImageJ software. Due to the rapidity of this experiment, the peptide was pre-aggregated as described above to obtain oligomers before being added to the cells.

The test system of another experiment is SH-SY5Y neuronal cells. Description: TMRM assay of mitochondrial membrane potential (ΔΨ). The note with it: for ΔΨ after pre-aggregated Aβ: any of the used concentrations, 45 minutes. It is filed as cell-based, human. As to the method:
(§1) Briefly, cells were plated on 25 mm optical borosilicate poly-L-lysine-coated sterile glass covers (ThermoFisher, Waltham, Mass., US) at a 70% confluence. The day after, cells were washed twice with HBSS and charged with 600 nM TMRM on HBSS. Cells were then incubated for 20 min in the incubator, at 37° C. and washed again with HBSS. After that, the medium was replaced by HBSS containing 150 nM of tetramethylrhodamine methyl ester (TMRM), in order to maintain the equilibrium distribution of the fluorophore. Cells were then mounted on Sykes-Moores chambers (BellCo, Vineland, N.J., US) and treated with the different drugs and/or peptides. An image was taken at minute 0 and at minute 45, after adding the drugs and/or peptides. In this experiment, the peptide was pre-aggregated as above before adding it to the cells.

For experiment [1], the system named is D3 cerebral microvascular endothelial cells. The description is as above. Particulars: for ΔΨ after pre-aggregated Aβ: any of the used concentrations, 45 minutes. The format is cell-based, human. As to the method: as §1
[2] abbreviates: drugs in diet from 5-6 months of age, sacrificed at 9 months.
Where [3] appears, read: ATZ 10 μM added to the peptides.

Consider `CC(=O)/N=c1/sc(S(N)(=O)=O)nn1C` [MTZ, methazolamide], for which, in the experiment on TgSwDI mice, the “Aβ and GFAP staining, dentate gyrus (hippocampus)” value is “both Aβ and GFAP were reduced”; the “GFAP and Aβ staining and their colocalization, cortex” value was “significant reduction”; the “co-localization of Aβ staining with glial cells, dentate gyrus” value was “not co-localized within glial cells”; the “gliosis and amyloidosis, thalamic region” value is “decreased gliosis (green) and amyloidosis (red)”. In the experiment on TgSwDI mice, the “amyloid deposits in the cortex and thalamic region (Thioflavin S)” value is “reduced deposition”; the “hippocampal deposition of Amyloid beta (Thioflavin S)” value is recorded as “decrease”; the “amyloid load in the brain (Thioflavin S)” value is reported as “reduced”. Moreover, in the experiment with TgSwDI mice (setting [2]), the “Aβ deposition, hippocampus” value was “reduction in Aβ deposition” and the “increase in caspase 3 activation induced by Aβ, hippocampus” value is recorded as “inhibited”. In addition, the “caspase 9 activation” value in the experiment with caspase 9 in D3 cells is given as “protective effect”. For the same compound, the “activity on mitochondrial CA” value with mitochondrial CA is on record as “high activity”. In the experiment on D3 cells, the “Aβ-induced decrease in mitochondrial and cytoplasmic Ca2+” value is “counteract the effect exerted by the peptide”. The “ΔΨ after pre-aggregated Aβ” value in the experiment with SH-SY5Y neuronal cells is listed as “rescue ΔΨ to values similar to those observed under control conditions”. Also, the “ΔΨ after pre-aggregated Aβ” value in experiment [1] is recorded as “rescue ΔΨ to values similar to those observed under control conditions”.
As to `CC(=O)Nc1nnc(S(N)(=O)=O)s1` [ATZ, acetazolamide], in the experiment on TgSwDI mice, the “Aβ and GFAP staining, dentate gyrus (hippocampus)” value was “both Aβ and GFAP were reduced”; the “GFAP and Aβ staining and their colocalization, cortex” value was “significant reduction”; the “co-localization of Aβ staining with glial cells, dentate gyrus” value is recorded as “not co-localized within glial cells”; the “gliosis and amyloidosis, thalamic region” value is “decreased gliosis (green) and amyloidosis (red)”. For the same compound, in the experiment with TgSwDI mice, the “amyloid deposits in the cortex and thalamic region (Thioflavin S)” value is “reduced deposition”; the “hippocampal deposition of Amyloid beta (Thioflavin S)” value is on record as “decrease”; the “amyloid load in the brain (Thioflavin S)” value is listed as “reduced”. Besides, the “increase in caspase 3 activation induced by Aβ, hippocampus” value with TgSwDI mice (setting [2]) is on record as “inhibited”. Also, the “caspase 9 activation” value in the experiment with caspase 9 in D3 cells is “protective effect”. Also, the “activity on mitochondrial CA” value with mitochondrial CA is “high activity”. For the same compound, the “Aβ-induced decrease in mitochondrial and cytoplasmic Ca2+” value with D3 cells was “counteract the effect exerted by the peptide”. For the same compound, the “loss of ΔΨ” value in the experiment with SH-SY5Y neuronal cells (setting [3]) is given as “prevent loss of ΔΨ”. Besides, the “ΔΨ after pre-aggregated Aβ” value in the experiment with SH-SY5Y neuronal cells was “rescue ΔΨ to values similar to those observed under control conditions”. Besides, the “loss of ΔΨ” value in experiment [1] (setting [3]) is on record as “prevent loss of ΔΨ”. In experiment [1], the “ΔΨ after pre-aggregated Aβ” value is recorded as “rescue ΔΨ to values similar to those observed under control conditions”.
